According to paper PMC5933782, “Molecular structures of cdc2-like kinases in complex with a new inhibitor chemotype” (PLoS ONE, 2018):

What was measured:
[1] = target: GSK-3; assay: radiometric protein kinase assay; assay type: biochemical, porcine; conditions: 15 μmol/L ATP; read-out: IC50 GSK3
[2] = test system: NCI-H322M; assay: NCI cancer cell line screening; assay type: cell-based; conditions: Homo sapiens, Non-Small Cell Lung Cancer
Experimental: (§1) Being the most promising compound in terms of CLK1 inhibitory potency and selectivity, KuWal151 (8c) was tested in the National Cancer Institute cancer cell line screening on 57 tumor cell lines of different tissue origin [45]. With only a few exceptions, KuWal151 inhibited the growth of most cell lines in submicromolar concentrations. In Table 2 the cancer cell line inhibition data is listed with the expression rates of SPF45 and CLK1 as indicated in the Expression Atlas database (https://www.ebi.ac.uk/gxa/home). Apparently the cell lines with high levels of CLK1 encoding RNA are inhibited over average. […] However, the available data are not sufficient to construe a clear relationship between the expression levels of the putative target CLK1 and sensitivity of the cell lines against 8c. The same holds true for SPF45, an important substrate of CLK1 involved in splicing which is found to be overexpressed in many cancer cell lines. […] The lack of a straight relationship between CLK1 and/or SPF45 expression levels on the one hand and sensitivity against the CLK1 inhibitor 8c on the other hand may have various reasons, e.g. different uptake rates of the inhibitor by the cells or alternative intracellular targets. For verification of the results from the NCI screening, which is based on the in situ fixation of cells followed by staining with the protein-binding dye sulforhodamin B [47, 48], 8c was also tested on two cell lines of the NCI panel (HT-29 and MDA-MB-231) in a crystal violet assay.

[3] = test system: U251; assay: NCI cancer cell line screening; assay type: cell-based; conditions: Homo sapiens, U-251; U251, CNS Cancer
Experimental: as §1

[4] = test system: OVCAR-4; assay: NCI cancer cell line screening; assay type: cell-based; conditions: Homo sapiens; OVCAR-4, Ovarian Cancer
Experimental: as §1

[5] = test system: SN12C; assay: NCI cancer cell line screening; assay type: cell-based; conditions: Homo sapiens, Renal Cancer
Experimental: as §1

[6] = test system: M14; assay: NCI cancer cell line screening; assay type: cell-based; conditions: Homo sapiens; M14, Melanoma
Experimental: as §1

[7] = test system: SNB-75; assay: NCI cancer cell line screening; assay type: cell-based; conditions: Homo sapiens; SNB-75, CNS Cancer
Experimental: as §1

[8] = test system: K-562; assay: NCI cancer cell line screening; assay type: cell-based; conditions: Homo sapiens, K562; K-562, Leukemia
Experimental: as §1

[9] = test system: SK-OV-3; assay: NCI cancer cell line screening; assay type: cell-based; conditions: Homo sapiens; SK-OV-3, Ovarian Cancer
Experimental: as §1

[10] = test system: A549/ATCC; assay: NCI cancer cell line screening; assay type: cell-based; conditions: Homo sapiens, Non-Small Cell Lung Cancer
Experimental: as §1

[11] = test system: OVCAR-3; assay: NCI cancer cell line screening; assay type: cell-based; conditions: Homo sapiens; OVCAR-3, Ovarian Cancer
Experimental: as §1

[12] = test system: HCT-15; assay: NCI cancer cell line screening; assay type: cell-based; conditions: Homo sapiens; HCT-15, Colon Cancer
Experimental: as §1

[13] = test system: PC-3; assay: NCI cancer cell line screening; assay type: cell-based; conditions: Homo sapiens; PC-3, Prostate Cancer
Experimental: as §1

[14] = test system: 786–0; assay: NCI cancer cell line screening; assay type: cell-based; conditions: Homo sapiens; 786–0, Renal Cancer
Experimental: as §1

[15] = test system: DU-145; assay: NCI cancer cell line screening; assay type: cell-based; conditions: Homo sapiens; DU-145, Prostate Cancer
Experimental: as §1

[16] = test system: MCF7; assay: NCI cancer cell line screening; assay type: cell-based; conditions: Homo sapiens; MCF7, Breast Cancer
Experimental: as §1

[17] = test system: HCT-116; assay: NCI cancer cell line screening; assay type: cell-based; conditions: Homo sapiens; HCT-116, Colon Cancer
Experimental: as §1

[18] = test system: BT-549; assay: NCI cancer cell line screening; assay type: cell-based; conditions: Homo sapiens; BT-549, Breast Cancer
Experimental: as §1

[19] = test system: UO-31; assay: NCI cancer cell line screening; assay type: cell-based; conditions: Homo sapiens; UO-31, Renal Cancer
Experimental: as §1

[20] = test system: HCC-2998; assay: NCI cancer cell line screening; assay type: cell-based; conditions: Homo sapiens; HCC-2998, Colon Cancer
Experimental: as §1

[21] = test system: HT29; assay: NCI cancer cell line screening; assay type: cell-based; conditions: Homo sapiens, HT-29; HT29, Colon Cancer
Experimental: as §1

[22] = test system: SK-MEL-28; assay: NCI cancer cell line screening; assay type: cell-based; conditions: Homo sapiens; SK-MEL-28, Melanoma
Experimental: as §1

[23] = test system: SK-MEL-2; assay: NCI cancer cell line screening; assay type: cell-based; conditions: Homo sapiens; SK-MEL-2, Melanoma
Experimental: as §1

[24] = test system: SF-268; assay: NCI cancer cell line screening; assay type: cell-based; conditions: Homo sapiens; SF-268, CNS Cancer
Experimental: as §1

[25] = test system: SW-620; assay: NCI cancer cell line screening; assay type: cell-based; conditions: Homo sapiens; SW-620, Colon Cancer
Experimental: as §1

[26] = test system: NCI-H23; assay: NCI cancer cell line screening; assay type: cell-based; conditions: Homo sapiens; NCI-H23, Non-Small Cell Lung Cancer
Experimental: as §1

[27] = test system: KM12; assay: NCI cancer cell line screening; assay type: cell-based; conditions: Homo sapiens; KM12, Colon Cancer
Experimental: as §1

[28] = test system: MDA-MB-231/ATCC; assay: NCI cancer cell line screening; assay type: cell-based; conditions: Homo sapiens, Breast Cancer
Experimental: as §1

[29] = test system: SF-539; assay: NCI cancer cell line screening; assay type: cell-based; conditions: Homo sapiens; SF-539, CNS Cancer
Experimental: as §1

[30] = test system: A498; assay: NCI cancer cell line screening; assay type: cell-based; conditions: Homo sapiens; A498, Renal Cancer
Experimental: as §1

[31] = test system: MDA-MB-435; assay: NCI cancer cell line screening; assay type: cell-based; conditions: Homo sapiens
Experimental: as §1

[32] = test system: TK-10; assay: NCI cancer cell line screening; assay type: cell-based; conditions: Homo sapiens; TK-10, Renal Cancer
Experimental: as §1

[33] = test system: SR; assay: NCI cancer cell line screening; assay type: cell-based; conditions: Homo sapiens, Leukemia
Experimental: as §1

[34] = test system: IGROV1; assay: NCI cancer cell line screening; assay type: cell-based; conditions: Homo sapiens, IGROV-1; IGROV1, Ovarian Cancer
Experimental: as §1

[35] = target: CDK1/cyclin B; assay: radiometric protein kinase assay; assay type: biochemical, starfish; conditions: 15 μmol/L ATP
[36] = target: CDK9/cyclin T (Homo sapiens, UniProt P50750); assay: radiometric protein kinase assay
Sequence of CDK9/cyclin T (P50750 whole entry): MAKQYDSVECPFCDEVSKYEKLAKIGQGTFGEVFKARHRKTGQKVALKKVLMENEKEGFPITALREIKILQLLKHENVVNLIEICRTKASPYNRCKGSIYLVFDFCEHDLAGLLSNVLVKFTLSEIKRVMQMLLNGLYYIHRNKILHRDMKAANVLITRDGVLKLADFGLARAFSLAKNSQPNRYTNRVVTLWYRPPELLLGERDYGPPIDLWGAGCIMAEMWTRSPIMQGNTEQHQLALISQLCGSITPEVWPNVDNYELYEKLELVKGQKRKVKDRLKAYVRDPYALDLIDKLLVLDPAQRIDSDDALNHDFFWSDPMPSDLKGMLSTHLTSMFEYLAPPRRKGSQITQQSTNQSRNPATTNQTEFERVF
Sequence of CDK9/cyclin T (O60563 whole entry partner): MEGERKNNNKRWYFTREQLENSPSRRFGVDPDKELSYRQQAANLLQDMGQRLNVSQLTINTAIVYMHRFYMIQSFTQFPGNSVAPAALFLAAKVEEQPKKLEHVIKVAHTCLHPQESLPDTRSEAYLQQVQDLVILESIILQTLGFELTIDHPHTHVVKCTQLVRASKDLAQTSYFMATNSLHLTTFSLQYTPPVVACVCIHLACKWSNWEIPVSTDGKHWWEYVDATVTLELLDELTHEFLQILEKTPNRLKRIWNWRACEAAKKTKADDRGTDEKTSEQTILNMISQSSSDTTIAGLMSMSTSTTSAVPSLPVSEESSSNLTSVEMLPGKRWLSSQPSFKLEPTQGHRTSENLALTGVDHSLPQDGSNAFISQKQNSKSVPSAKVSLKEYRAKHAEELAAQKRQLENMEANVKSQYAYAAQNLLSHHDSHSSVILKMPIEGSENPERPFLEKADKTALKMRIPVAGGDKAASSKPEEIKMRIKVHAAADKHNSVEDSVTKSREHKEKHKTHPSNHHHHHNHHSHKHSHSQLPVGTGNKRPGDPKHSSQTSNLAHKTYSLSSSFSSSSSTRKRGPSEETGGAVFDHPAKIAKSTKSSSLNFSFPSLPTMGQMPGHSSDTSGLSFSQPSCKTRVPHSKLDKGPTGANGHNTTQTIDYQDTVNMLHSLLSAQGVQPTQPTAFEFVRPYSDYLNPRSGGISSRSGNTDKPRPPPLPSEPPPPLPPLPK

[37] = target: CK1δ/ε; assay: radiometric protein kinase assay; assay type: biochemical, porcine; conditions: 15 μmol/L ATP; read-out: IC50 CK1

O=C1NCc2ccc3c(-c4cccc(Cl)c4)c[nH]c3c21 [8c, 3-(3-Chlorophenyl)-6,7-dihydropyrrolo[3,4-g]indol-8(1H)-one]
IC50 [1]: > 10000 nM
GI50 [2]: 2390 nM
GI50 [3]: 263 nM
GI50 [4]: 912 nM
GI50 [5]: 331 nM
GI50 [6]: 132 nM
GI50 [7]: 151 nM
GI50 [8]: 162 nM
GI50 [9]: 275 nM
GI50 [10]: 389 nM
GI50 [11]: 191 nM
GI50 [12]: 178 nM
GI50 [13]: 339 nM
GI50 [14]: 275 nM
GI50 [15]: 316 nM
GI50 [16]: 174 nM
GI50 [17]: 191 nM
GI50 [18]: 204 nM
GI50 [19]: 832 nM
GI50 [20]: 912 nM
GI50 [21]: 174 nM
GI50 [22]: 692 nM
GI50 [23]: 316 nM
GI50 [24]: 437 nM
GI50 [25]: 209 nM
GI50 [26]: 525 nM
GI50 [27]: 209 nM
GI50 [28]: 1380 nM
GI50 [29]: 166 nM
GI50 [30]: 166 nM
GI50 ([31]; MDA-MB-435, MDA-MB-435, Melanoma): 72.4 nM
GI50 ([31]; MDA-MB-435, MDA-MB-435, as quoted in text): 72 nM
GI50 [32]: 10200 nM
GI50 [33]: 151 nM
GI50 [34]: 427 nM
IC50 [35]: > 10000 nM
IC50 [36]: > 10000 nM
IC50 [37]: > 10000 nM
